Assay results as given in US6653306B1, “Epoxy-steroidal aldosterone antagonist and angiotensin II antagonist combination therapy” (G.D. Searle & Co., priority 1995, dated 2003).
pIC50: −log10 of the molar value.

Columns and labels:
pressor response to AII = test: Assay C: In vivo intragastric pressor assay response for AII antagonists; design: species or system rat; conditions: intragastric, or intraduodenal for examples listed
Method: Assay C: In Vivo Intragastric Pressor Assay Response for AII Antagonists
Male Sprague-Dawley rats weighing 225-300 grams were anesthetized with methohexital (30 mg/kg, i.p.) and catheters were implanted into the femoral artery and vein. The catheters were tunneled subcutaneously to exit dorsally, posterior to the head and between the scapulae. The catheters were filled with heparin (1000 units/ml of saline). The rats were returned to their cage and allowed regular rat chow and water ad libitum. After full recovery from surgery (3-4 days), rats were placed in Lucite holders and the arterial line was connected to a pressure transducer. Arterial pressure was recorded on a Gould polygraph (mmHg). Angiotensin II was administered as a 30 ng/kg bolus via the venous catheter delivered in a 50 μl volume with a 0.2 ml saline flush. The pressor response in mm Hg was measured by the differer.-:e from pre-injection arterial pressure to the maximum pressure achieved. The AII injection was repeated every 10 minutes until three consecutive injections yielded responses within 4 mmHg of each other. These three responses were then averaged and represented the control response to AII. The test compound was suspended in 0.5% methylcellulose in water and was administered by gavage. The volume administered was 2 ml/kg body weight. The standard dose was 3 mg/kg. Angiotensin II bolus injections were given at 30, 45, 60, 75, 120, 150, and 180 minutes after gavage. The pressor response to AII was measured at each time point. The rats were then returned to their cage for future testing. A minimum of 3 days was allowed between tests. Percent inhibition was calculated for each time point following gavage by the following formula:
[(Control Response—Response at time point)/Control Response]×100.

rabbit aortic rings = test: Assay B: In vitro vascular smooth muscle response for AII (antagonist activity, pA2); type: cell-based; conditions: Oryctolagus cuniculus, in vitro vascular smooth muscle response; two values per cell separated by / are separate determinations; read-out: Assay B pA2 (converted)
Method: Assay B: In Vitro Vascular Smooth Muscle-response for AII
The compounds of the invention were tested for antagonist activity in rabbit aortic rings. Male New Zealand white rabbits (2-2.5 kg) were sacrificed using an overdose of pentobarbital and exsanguinated via the carotid arteries. The thoracic aorta was removed, cleaned of adherent fat and connective tissue and then cut into 3-mm ring segments. The endothelium was removed from the rings by gently sliding a rolled-up piece of filter paper into the vessel lumen. The rings were then mounted in a water-jacketed tissue bath, maintained at 37° C., between moveable and fixed ends of a stainless steel wire with the moveable end attached to an FT03 Grass transducer coupled to a Model 7D Grass Polygraph for recording isometric force responses. The bath was filled with 20 ml of oxygenated (95% oxygen/5% carbon dioxide) Krebs solution of the following composition (mM): 130 NaCl, […], 15 KCl, 1.2 NaH2PO4, 1.2 MgSO4, 2.5 CaCl2, and 11.4 glucose. The preparations were equilibrated for one hour before approximately one gram of passive tension was placed on the rings. Angiotensin II concentration-response curves were then recorded (3×10^−10 to 1×10^−5 M). Each concentration of AII was allowed to elicit its maximal contraction, and then AII was washed out repeatedly for 30 minutes before rechallenging with a higher concentration of AII. Aorta rings were exposed to the test antagonist at […] for 5 minutes before challenging with AII. Adjacent segments of the same aorta ring were used for all concentration-response curves in the presence or absence of the test antagonist. The effectiveness of the test compound was expressed in terms of pA2 values and were calculated according to H. O. Schild [Br. J. Pharmacol, Chemother., 2,189-206 (1947)]. The pA2 value is the concentration of the antagonist which increases the EC50 value for AII by a factor of two. Each test antagonist was evaluated in aorta rings from two rabbits.

[1] = biological target: angiotensin II AT1 receptor; test: Assay A: Angiotensin II binding activity (125I-AII displacement, rat uterine membrane preparation)
[2] = Rattus norvegicus, dose 3 mg/kg

Row | SMILES | Kb (rabbit aortic rings) [nM] | pIC50 [1] | further results
1 | CCCCc1nc2c(OC(=O)C(C)C)nnc(O)c2n1Cc1ccc(-c2ccccc2-c2nnn[nH]2)cc1 [Compound 119] | 0.617 | – | inhibition at 3 mg/kg (pressor response to AII; [2]): 20%; Assay C Duration (pressor response to AII; dose 3 mg/kg): 60 min
2 | CCCCc1nc(CCCC)n(Cc2ccc(-c3ccccc3-c3nnn[nH]3)cn2)n1 [Compound 239] | 13.2 | – | inhibition at 3 mg/kg (pressor response to AII; [2]): 20%
3 | CCCCc1nc(Cl)nn1Cc1ccc(-c2ccccc2-c2nnn[nH]2)cc1 [compound 7] | 9.77 | – | inhibition at 30 mg/kg (pressor response to AII; Rattus norvegicus): 90%
4 | CCCCc1nc2c(CCC)nnc(O)c2n1Cc1ccc(-c2ccccc2-c2nnn[nH]2)cc1 [Compound 113] | 3.98 | – | inhibition at 10 mg/kg (pressor response to AII; Rattus norvegicus, dose 10 mg/kg): 60%; Assay C Duration (pressor response to AII; dose 10 mg/kg): 180 min
5 | CCCCc1nc2c(O)nnc(O)c2n1Cc1ccc(-c2ccccc2-c2nnn[nH]2)cc1 [Compound 111] | 1 | – | inhibition at 30 mg/kg (pressor response to AII; Rattus norvegicus): 87%
6 | CCCCc1nn(CC(=O)c2cc(OC)ccc2OC)c(=O)n1Cc1ccc(-c2ccccc2-c2nn[nH]n2)cc1 [Compound 96] | 10 | 7.68 | –
7 | CCCCc1nn(CC(=O)C23CC4CC(CC(C4)C2)C3)c(=O)n1Cc1ccc(-c2ccccc2-c2nn[nH]n2)cc1 [Compound 80] | 7.94 | 7.60 | –
8 | CCCc1nc(CCC)n(Cc2ccc(-c3ccccc3-c3nnn[nH]3)cc2)n1 [Compound 12] | 2.19 | 8.22 | –
9 | CCCCc1nc(CCC(=O)O)n(Cc2ccc(-c3ccccc3-c3nnn[nH]3)cc2)n1 [Compound 64] | 100 | 7.27 | –
10 | CCCCc1nn(C(C)(C)C(=O)c2ccccc2)c(=O)n1Cc1ccc(-c2ccccc2-c2nn[nH]n2)cc1 [Compound 102] | 20 | 7.37 | –
11 | CCCCc1nn(CCC(C)CC(C)(C)C)c(=O)n1Cc1ccc(-c2ccccc2-c2nn[nH]n2)cc1 (centres unmarked) [Compound 92] | 12.6 | 7.46 | –
12 | CCCCc1nc(C(F)F)nn1Cc1ccc(-c2ccccc2-c2nnn[nH]2)cc1 [Compound 47] | 14.1 | 7.68 | –
13 | CCCCc1nc(Cc2ccc(-c3ccccc3-c3nnn[nH]3)nc2)n(CC(CC)CC)n1 [Compound 157] | 603 | 6.28 | –
14 | CCCCc1c(C)n(CCCC)c(=O)n1Cc1ccc(-c2ccccc2-c2nnn[nH]2)cc1 [Compound 137] | 5.01 | 6.66 | –
15 | CCCCn1nc(C(=O)NC)nc1Cc1ccc(-c2ccccc2-c2nnn[nH]2)nc1 [Compound 172] | 70.8 | 7.15 | –
16 | CCCCc1nc(CCCN)nn1Cc1ccc(-c2ccccc2-c2nnn[nH]2)cc1 [Compound 72] | 776 | 7.08 | –
17 | CCCCc1nc(CC)nn1Cc1ccc(-c2ccccc2-c2nnn[nH]2)cc1 [Compound 39] | 13.2 | 8.00 | –
18 | CCCCc1nn(CCCC)c(=O)n1Cc1ccc(-c2ccccc2-c2nnn[nH]2)cc1 [Compound 79] | 0.631 | 8.31 | –
19 | CCCCc1nc(CCC)n(Cc2ccc(-c3ccccc3-c3nnn[nH]3)cc2)n1 [Compound 15] | 4.9 | 7.80 | –
20 | CCCCc1nc(CNC(=O)CCC(NC(C)=O)C(=O)OC(C)(C)C)nn1Cc1ccc(-c2ccccc2-c2nnn[nH]2)cc1 (centres unmarked) [Compound 41] | 2090 | 5.43 | –
21 | CCCCc1nc(CCCC)n(Cc2ccc(-c3cnccc3-c3nnn[nH]3)cc2)n1 [Compound 244] | 67.6 | 6.82 | –
22 | CCCCc1nc(C(=O)NC)nn1Cc1ccc(-c2ccccc2-c2nnn[nH]2)nc1 [Compound 257] | 234 | 6.80 | –
23 | CCCc1cn(CCC)c(=O)n1Cc1ccc(-c2ccccc2-c2nnn[nH]2)cc1 [Compound 138] | 6.31 | 6.89 | –
24 | CCCCc1nn(CCC2CCCCC2)c(=O)n1Cc1ccc(-c2ccccc2-c2nn[nH]n2)cc1 [Compound 89] | 12.6 | 7.74 | –

Row | SMILES | Kb (rabbit aortic rings) [nM] | pIC50 [1] | further results
25 | CCCCn1nc(C(OC(C)C)OC(C)C)nc1Cc1ccc(-c2ccccc2-c2nnn[nH]2)nc1 [Compound 178] | 28.8 | 7.06 | –
26 | CCCCc1nc(CNC(=O)OC(C)(C)C)nn1Cc1ccc(-c2ccccc2-c2nnn[nH]2)cc1 [Compound 35] | 56.2 | 7.39 | –
27 | CCCCc1nc(C=O)nn1Cc1ccc(-c2ccccc2-c2nnn[nH]2)cc1 [Compound 49] | 87.1 | 6.92 | –
28 | CCCCc1nc(CC)n(Cc2ccc(-c3ccccc3C(=O)O)cc2)n1 [Compound 76] | 3020 | 5.27 | –
29 | CCCCc1nc(CC23CC4CC(CC(C4)C2)C3)nn1Cc1ccc(-c2ccccc2-c2nnn[nH]2)cc1 [Compound 62] | 2.04 | 7.59 | –
30 | CCCCc1nc(Cc2ccc(-c3ccccc3-c3nnn[nH]3)nc2)n(CC(C)(C)C)n1 [Compound 184] | 166 | 5.96 | –
31 | CCCCc1nn(CC(OCC(=O)OCC)c2ccccc2)c(=O)n1Cc1ccc(-c2ccccc2-c2nn[nH]n2)cc1 (centres unmarked) [Compound 107] | 5.01 | 6.74 | –
32 | CCCCCCn1nc(CCCC)n(Cc2ccc(-c3ccccc3-c3nn[nH]n3)cc2)c1=O [Compound 85] | 1.26 | 8.06 | –
33 | CCCCc1nn(Cc2ccc3ccccc3c2)c(=O)n1Cc1ccc(-c2ccccc2-c2nn[nH]n2)cc1 [Compound 99] | 316 | 6.55 | –
34 | CCCCc1nn(CC(=O)OCC)c(=O)n1Cc1ccc(-c2ccccc2-c2nn[nH]n2)cc1 [Compound 86] | 15.8 | 8.05 | –
35 | CCCCn1nc(C(C#N)CCC)n(Cc2ccc(-c3ccccc3-c3nn[nH]n3)cc2)c1=O (centres unmarked) [Compound 106] | 20 | 7.32 | –
36 | CCCCc1cn(CCCC)c(=O)n1Cc1ccc(-c2ccccc2-c2nnn[nH]2)cc1 [Compound 132] | 2.51 | 7.92 | –
37 | CCCCc1ncnn1Cc1ccc(-c2ccccc2-c2nnn[nH]2)cc1 [Compound 53] | 27.5 | 7.19 | –
38 | CCCCc1nc(CCCO)nn1Cc1ccc(-c2ccccc2-c2nnn[nH]2)cc1 [Compound 45] | 3.89 | 8.36 | –
39 | CCCCn1nc(/C=C/c2cccs2)nc1Cc1ccc(-c2ccccc2-c2nnn[nH]2)nc1 [Compound 154] | 6.46 | 7.01 | –
40 | CCCCc1nc(CCCC2CCCCC2)nn1Cc1ccc(-c2ccccc2-c2nnn[nH]2)cc1 [Compound 58] | 355 | 6.85 | –
41 | CCCCc1nc2c(OCC)nnc(OCC)c2n1Cc1ccc(-c2ccccc2-c2nnn[nH]2)cc1 [Compound 112] | 6310 | 5.70 | –
42 | CCCCc1nc(CCCC2CCCCC2)n(Cc2ccc(-c3ccccc3-c3nnn[nH]3)cc2)n1 [Compound 57] | 1000 | 5.64 | –
43 | CCCCc1nc(CCCNC(=O)OC(C)(C)C)n(Cc2ccc(-c3ccccc3-c3nnn[nH]3)cc2)n1 [Compound 67] | 1320 | 5.51 | –
44 | CCCCc1nc(C(=O)NC)n(Cc2ccc(-c3ccccc3-c3nnn[nH]3)nc2)n1 [Compound 258] | 145 | 6.46 | –
45 | CCCCc1nc(Cc2ccc(-c3ccccc3C(=O)O)cc2)nn1CCCC [Compound 127] | 11000 | 4.92 | –
46 | CCCCCn1nc(CCCC)n(Cc2ccc(-c3ccccc3-c3nn[nH]n3)cc2)c1=O [Compound 90] | 1 | 8.25 | –
47 | CCCCc1nc(C)nn1Cc1ccc(-c2ccccc2C(=O)O)cc1 [Compound 280] | 389 | 6.32 | –
48 | CCCCc1ncnn1Cc1ccc(-c2ccccc2C(=O)O)cc1 [Compound 18] | 724 | 6.01 | –
